# PMC7932537, “Quantitative profiling of protease specificity” (PLoS Computational Biology, 2021)
# Assays:
# MMP-2 = assay: Substrate phage display with NGS: relative probability (RP) of P3-P1' tetramer clusters; type: biochemical, human; conditions: for avg_RP: MMP2 - no binning; for relative probability (RP) of matching tetramer: P3-P1' tetramer matching the MS detected MMP2 cleavage sequence, RP_above_4.5; for normalized RP - MMP2: normalized RP of matching tetramer; for MMP2 relative probability (RP): MMP2 tetramers from unique substrates, unrounded values
# MMP-9 = assay: as above; type: biochemical, human; conditions: for normalized RP - MMP9: normalized RP of matching tetramer; for corresponding MMP9 relative probability (RP): MMP2 tetramers from unique substrates, RP of same tetramer for MMP9
# [1] = RP of the P3-P1' tetramer cluster contained in the hexamer, 200 nM MMP-2, 2 h, 37°C, two rounds of selection
# [2] = MMP9, RP of the P3-P1' tetramer contained in the hexamer substrate (substrate phage display, NGS)
# [3] = RP of the P3-P1' tetramer, MMP2 substrate phage display/NGS, tetramers of physiologic MEROPS substrates common to MMP2 and MMP9
# [4] = RP of the P3-P1' tetramer, MMP9 substrate phage display/NGS, tetramers of physiologic MEROPS substrates common to MMP2 and MMP9
# [5] = RP of matching tetramer, unique part of MMP2 selectome, RP above KL threshold
# [6] = RP of matching tetramer, unique part of MMP2 selectome
# [7] = MMP2, RP of matching P3-P1' tetramer, common set of MMP2-9 selectome, RP above KL threshold
# [8] = RP of matching tetramer, common MMP2-9 selectome
# [9] = MMP9, RP of matching P3-P1' tetramer, common set of MMP2-9 selectome
# [10] = MMP9, RP of the P3-P1' tetramer matching the MS detected cleavage, RP above 4.7, substrate phage display with NGS
# [11] = RP of matching tetramer, common MMP2-9 selectome, RP above KL threshold
# [12] = RP according to MMP2, P3-P1' tetramer of unique physiologic MMP2 substrates from MEROPS
substance,measurement,setting,value
TAPSSQ,relative probability (RP),MMP-2; [1],25.0042
same,relative probability (RP),MMP-9; [2],27.1142
APGN,relative probability (RP) (acc.to MMP2),MMP-2; [3],3.62
same,relative probability (RP) (acc.to MMP9),MMP-9; [4],2.38
PPGS,relative probability (RP) (acc.to MMP2),MMP-2; [3],0.1
same,relative probability (RP) (acc.to MMP9),MMP-9; [4],0.2
WGAL,avg_RP,"MMP-2; average relative probability of the tetramer, redundant tetramers averaged out",26.3441
same,relative probability (RP) of matching tetramer,MMP-2,26.34
same,relative probability (RP) (acc.to MMP2),MMP-2; [5],26.34
same,normalized RP - MMP2,MMP-2; unique part of MMP2 selectome,0.7212
same,relative probability (RP) (acc.to MMP9),MMP-9; [6],3.54
same,normalized RP - MMP9,MMP-9; unique part of MMP2 selectome,0.06758
FKNI,relative probability (RP) (acc.to MMP2),MMP-2; [3],0.14
same,relative probability (RP) (acc.to MMP9),MMP-9; [4],0.09
LANM,avg_RP,"MMP-2; average relative probability (RP) of the P3-P1' tetramer, redundant tetramers have been averaged out",31.4114
same,relative probability (RP) (acc.to MMP2),MMP-2; [3],31.41
same,relative probability (RP) (acc.to MMP9),MMP-9; [4],5.47
GQPMNL,relative probability (RP),MMP-2; [1],32.5586
same,relative probability (RP),MMP-9; [2],48.9575
PGMI,relative probability (RP) (acc.to MMP2),MMP-2; [7],17.65
same,relative probability (RP) of matching tetramer,MMP-2,17.65
same,relative probability (RP) (acc.to MMP2),MMP-2; [8],17.65
same,relative probability (RP) (acc.to MMP9),MMP-9; [9],13.36
same,relative probability (RP),MMP-9; [10],13.36
same,relative probability (RP) (acc.to MMP9),MMP-9; [11],13.36
RGEL,MMP2 relative probability (RP),MMP-2,14.9989
same,Relative probability (RP) rank,MMP-2; [12],3096
same,relative probability (RP),MMP-2; [12],15
same,corresponding MMP9 relative probability (RP),MMP-9,0.3681
EPVSLA,relative probability (RP),MMP-2; [1],32.502
same,relative probability (RP),MMP-9; [2],42.3557
PYEWHS,relative probability (RP),MMP-2; [1],1.984
same,relative probability (RP),MMP-9; [2],22.8534
SIPLPL,relative probability (RP),MMP-2; [1],35.0814
same,relative probability (RP),MMP-9; [2],49.0268
SAPL,relative probability (RP) of matching tetramer,MMP-2,18.44
same,relative probability (RP) (acc.to MMP2),MMP-2; [5],18.44
same,normalized RP - MMP2,MMP-2; unique part of MMP2 selectome,0.5049
same,relative probability (RP) (acc.to MMP9),MMP-9; [6],2.49
same,normalized RP - MMP9,MMP-9; unique part of MMP2 selectome,0.04754
ARHYKS,relative probability (RP),MMP-2; [1],10.2998
same,relative probability (RP),MMP-9; [2],23.6532
PVSL,relative probability (RP) (acc.to MMP2),MMP-2; [3],32.5
same,relative probability (RP) (acc.to MMP9),MMP-9; [4],42.36
GEPFEL,relative probability (RP),MMP-2; [1],15.9169
same,relative probability (RP),MMP-9; [2],44.9497
PFGV,relative probability (RP) (acc.to MMP2),MMP-2; [8],6.82
same,relative probability (RP),MMP-9; [10],38.95
same,relative probability (RP) (acc.to MMP9),MMP-9; [11],38.95
TQPKAM,relative probability (RP),MMP-2; [1],31.5595
same,relative probability (RP),MMP-9; [2],48.8005
ARAY,relative probability (RP) (acc.to MMP2),MMP-2; [7],20.14
same,relative probability (RP) of matching tetramer,MMP-2,20.14
same,relative probability (RP) (acc.to MMP2),MMP-2; [8],20.14
same,relative probability (RP) (acc.to MMP9),MMP-9; [9],36.14
same,relative probability (RP),MMP-9; [10],36.14
same,relative probability (RP) (acc.to MMP9),MMP-9; [11],36.14
MNML,relative probability (RP) of matching tetramer,MMP-2,8.39
same,relative probability (RP) (acc.to MMP2),MMP-2; [5],8.39
same,normalized RP - MMP2,MMP-2; unique part of MMP2 selectome,0.2297
same,relative probability (RP) (acc.to MMP9),MMP-9; [6],0.4
same,normalized RP - MMP9,MMP-9; unique part of MMP2 selectome,0.007637
FSPL,MMP2 relative probability (RP),MMP-2,14.7799
same,Relative probability (RP) rank,MMP-2; [12],3161
same,relative probability (RP),MMP-2; [12],14.78
same,corresponding MMP9 relative probability (RP),MMP-9,1.083
GEPRGQ,relative probability (RP),MMP-2; [1],29.4864
same,relative probability (RP),MMP-9; [2],42.1179
VQAM,relative probability (RP) (acc.to MMP2),MMP-2; [8],21.36
same,relative probability (RP),MMP-9; [10],21.63
same,relative probability (RP) (acc.to MMP9),MMP-9; [11],21.63
IQSI,relative probability (RP) of matching tetramer,MMP-2,15.56
same,relative probability (RP) (acc.to MMP2),MMP-2; [5],15.56
same,normalized RP - MMP2,MMP-2; unique part of MMP2 selectome,0.4261
same,relative probability (RP) (acc.to MMP9),MMP-9; [6],0.41
same,normalized RP - MMP9,MMP-9; unique part of MMP2 selectome,0.007827
RMMREL,relative probability (RP),MMP-2; [1],19.1524
same,relative probability (RP),MMP-9; [2],21.3182
